The source of these data is PMC11820915, “Identification of HIV-1 Reverse Transcriptase-Associated Ribonuclease H Inhibitors Based on 2-Hydroxy-1,4-naphthoquinone Mannich Bases” (Molecules, 2025).

One series has as its system SARS-CoV-2. Kind of series: microbe, parasite or virus in culture. Format: cell-based. The note with it: read-out: EC50 for viral replication inhibition.
For a further series, the system named is VEROE6-EGFP cells. Conditions: read-out: CC50 cytotoxic concentration, in the presence of 2 µM CP-100356.

As usually defined, the EC50 is the concentration needed to bring the measured effect to its halfway point. Regarding `CC(C)C[C@H](NC(=O)OCc1ccccc1)C(=O)N[C@@H](CC1CCNC1=O)C(O)S(=O)(=O)O` (some centres unmarked) [GC-376, reference compound], the EC50 in the series with SARS-CoV-2 stood at 840 ± 80 nM. The CC50 in the series with VEROE6-EGFP cells was over 100000 nM.
